From patent US20260078121A1, “INHIBITORS OF ENL/AF9 YEATS AND FLT3” (Bridge Medicines, priority 2022, published 2026)

Experiments:
[1] = tested on: MV4:11 (MLL-AF4 MLL) cells; experiment: Cell viability assay (CellTiter-Glo), 12 days; type: cell-based; settings: Homo sapiens, 288 h, MV4:11 cells, cells split on days 4 and 8, CellTiter-Glo readout, read-out: MV4:11, 12 Day IC50
Procedure: Cell-based assays were used to assess the ability of test compounds to reduce cell viability in both MV4:11 (MLL-AF4 MLL) and K562 cells, which were cultured in Iscove's Modified Dulbecco's medium (Gibco, 12440061) containing 10% FBS. The assays were conducted over 12 days and the cells being split on days 4 and 8. Compound concentration response curves were performed in duplicate over the concentration range of 0.15 nM-30 μM. On day 0, the compounds or vehicle were plated in a 300 nL directly into 96 well cell culture plates (Corning, 3599) with 5000 cells/well in a volume of 100 μL. Blank wells received cell culture medium. Plates were incubated for 4 days at 37° C. with 5% CO2. On days 4 and day 8 the cells were split and incubated for a further 4 days whilst an aliquot of cells were taken for the CTG readout. For the cell splitting, 270 nL of compounds or DMSO was added to a new 96 well cell culture plate to which 90 μL of medium plus 10 μL of cells from the original assay plate (after mixing) or 100 μL of medium (Blank wells) was added. This was repeated on day 8.
Cell viability was assessed using the CellTiter-Glo® homogeneous luminescent assay kit (Promega, G9243), according to the manufacturer's instructions. This quantifies ATP, which indicates the presence of metabolically active cells. On days 4, 8 and 12, 20 μl of the remaining cell suspension was aspirated into 384-well plate (Corning 3570) to which an equal volume CellTiter-Glo reagent was. Plates were incubated for 10 minute incubation at RT prior to recording the luminescence signal using EnVision plate reader (PE, 2104). The resulting data were analyzed as follows:
where vehicle are cells treated with 0.3% DMSO, Blank is culture medium. IC50 determinations were calculated by fitting the curve using XLfit (v5.3.1.3): Y=Bottom+(Top−Bottom)/(1+10^((Log IC50−X)*HillSlope)).

[2] = molecular target: T1, ENL YEATS domain (Homo sapiens, UniProt Q03111); experiment: TR-FRET ENL Screening Assay; settings: 6×HIS ENL YEATS domain binding to biotinylated H3K9cr peptide (aa1-20)
T1 construct: ENL Protein (6×HIS ENL YEATS Domain, EpiCypher, 15-0069); purchased EpiCypher 15-0069
T1 sequence (Q03111 1-138 limits assumed): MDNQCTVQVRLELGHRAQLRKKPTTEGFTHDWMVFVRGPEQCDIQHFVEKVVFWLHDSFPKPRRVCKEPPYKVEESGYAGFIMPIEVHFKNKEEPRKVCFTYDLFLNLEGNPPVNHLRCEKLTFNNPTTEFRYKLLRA
Procedure: Compounds of the invention were tested in a TR-FRET ENL Screening Assay. TR-FRET (time-resolved fluorescence energy transfer) can be used to quantify ENL YEATS domain binding to a crotonylated histone peptide (H3K9cr, aa1-20). Streptavidin-Europium (Eu) chelate binds the biotinylated peptide, while Anti-6×HIS ULight™ binds 6×HIS-ENL. When Eu chelate is excited at 320 nm, fluorescence resonance energy transfer (FRET) occurs if Eu and ULight are made proximal by ENL binding to the acyl-peptide. ULight emission (FRET) is measured at 665 nm and normalized to the Eu emission at 615 nm to reduce variability between wells.
Compounds of the invention were dissolved in DMSO at a concentration of 3 mM with subsequent dilutions in assay buffer (50 mM HEPES PH 7.0, 150 mM NaCl, 0.05% BSA, 0.2% Pluronic F-127) such that the assay contained 1% DMSO. In a white 384 shallow well Microplate (Proxiplate-384 Plus, PerkinElmer, 6008280), 150 nL of compound or vehicle (1% DMSO in assay buffer) for the high control (HC) wells and 5 μL of 30 nM ENL Protein (6×HIS ENL YEATS Domain, EpiCypher, 15-0069) were combined and incubated 15 minutes at RT. Low control (LC) wells received 5 μL of assay buffer instead of ENL protein. Then 5 μL of 15 nM H3K9cr peptide (H3 aa1-20, biotinylated; EpiCypher, 12-0099) in assay buffer was added and incubated 30 minutes at RT. Finally, a 5 L mix of 45 nM Anti-6HIS ULight (PerkinElmer, TRF0105) and 1.5 nM Streptavidin-Europium Chelate (PerkinElmer, AD0060) were added and incubated for a further 30 minutes at RT. The TR-FRET signal (665 nm signal/615 nm signal×10,000) was measured using a PerkinElmer 2104 EnVision (Xenon Flash Lamp excitation, 320 nm±37.5 nm excitation filter, 407 nm cut off dichroic mirror, 615 nm±4.25 (Europium) nm and 665 nm+3.75 nM (ULight) emission filters). Compound concentration response curves were performed in duplicate over the concentration range of 0.15 nM-30 μM. The response at each compound concentration minus the LC value was converted to percent inhibition of the vehicle control group response (HC-LC).

[3] = molecular target: T2, FLT3 (Homo sapiens, UniProt P36888); experiment: FLT3 Inhibition Assay; type: biochemical; settings: FL Peptide 2 substrate, 30 min preincubation, 90 min at room temperature, Caliper EZ reader
T2 construct: purchased Carna 08-154
T2 sequence (P36888 27-993): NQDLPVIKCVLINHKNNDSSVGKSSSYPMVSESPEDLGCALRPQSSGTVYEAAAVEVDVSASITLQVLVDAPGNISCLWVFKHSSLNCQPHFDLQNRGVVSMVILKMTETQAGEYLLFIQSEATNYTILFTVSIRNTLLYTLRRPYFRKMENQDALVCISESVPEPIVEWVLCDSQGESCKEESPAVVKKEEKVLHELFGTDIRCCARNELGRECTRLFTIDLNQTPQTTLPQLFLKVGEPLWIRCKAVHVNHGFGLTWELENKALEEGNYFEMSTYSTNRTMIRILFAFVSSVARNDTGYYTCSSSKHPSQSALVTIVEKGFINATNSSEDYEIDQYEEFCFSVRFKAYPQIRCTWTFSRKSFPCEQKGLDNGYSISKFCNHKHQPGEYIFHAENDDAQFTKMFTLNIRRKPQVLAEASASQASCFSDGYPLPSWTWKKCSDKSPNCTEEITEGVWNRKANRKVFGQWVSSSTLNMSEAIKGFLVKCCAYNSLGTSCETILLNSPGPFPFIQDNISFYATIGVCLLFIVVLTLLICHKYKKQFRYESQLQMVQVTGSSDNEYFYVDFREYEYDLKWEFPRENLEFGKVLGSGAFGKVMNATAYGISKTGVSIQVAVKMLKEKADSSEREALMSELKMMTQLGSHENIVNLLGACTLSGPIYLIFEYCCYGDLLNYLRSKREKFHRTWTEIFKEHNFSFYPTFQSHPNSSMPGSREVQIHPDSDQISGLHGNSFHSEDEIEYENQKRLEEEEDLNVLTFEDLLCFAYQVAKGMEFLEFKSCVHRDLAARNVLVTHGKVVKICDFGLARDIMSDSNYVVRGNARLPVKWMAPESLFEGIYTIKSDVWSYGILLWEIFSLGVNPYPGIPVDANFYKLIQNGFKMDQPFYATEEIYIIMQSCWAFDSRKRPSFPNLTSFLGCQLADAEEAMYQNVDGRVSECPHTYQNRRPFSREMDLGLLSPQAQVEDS
Procedure: Starting with a 10 mM stock solution, each test compound was serially diluted into 10 concentrations by 3-fold dilution using TECAN EVO200. 60 nL of each stock was transferred to a 384 plate using Echo550.
Solution 1 was prepared as the table above and used to dilute the FLT3, ATP and FL2 stock to 0.9379 nM (1.33×), 400 μM (4×) and 6 μM (4×) respectively. The FLT3 solution (15 μL) at 25° C. was added to each well, shaken for 1 min and preincubated with test compound and controls for 30 min. To each well, 5 μL of ATP and FL-Peptide2 solutions, as prepared above, were added and the plate was shaken for 10 seconds, then spun briefly at 1000 rpm, then incubated for 90 minutes at room temperature. The plate was read on Caliper EZ reader, and the IC50 values were calculated using XLfit (equation below).
[formula] • LumSample: Test compound signal • LumLC: Low control signal • LumHC: High control signal

Row | IC50 [1] [nM] | IC50 [2] [nM] | IC50 [3] [nM] | Structure (SMILES)
1 | 138 | 64 | – | CN1CCCC[C@@H]1c1cc2cnc(NC(=O)c3ccc(-c4cn[nH]c4)cc3)cc2[nH]1 [Example 6, (R)-N-(2-(1-methylpiperidin-2-yl)-1H-pyrrolo[3,2-c]pyridin-6-yl)-4-(1H-pyrazol-4-yl)benzamide]
2 | 36 | – | – | CN1CCCC[C@@H]1c1cc2cnc(NC(=O)c3ccc(-c4cn[nH]c4)cn3)cc2[nH]1 [Example 7, (R)-N-(2-(1-methylpiperidin-2-yl)-1H-pyrrolo[3,2-c]pyridin-6-yl)-5-(1H-pyrazol-4-yl)picolinamide]
3 | 357 | 179 | – | COCc1n[nH]cc1-c1ccc(C(=O)Nc2cc3[nH]c([C@H]4CCCN4C)cc3cn2)cc1 [Example 8, (R)-4-(5-(methoxymethyl)-1H-pyrazol-4-yl)-N-(2-(1-methylpyrrolidin-2-yl)-1H-pyrrolo[3,2-c]pyridin-6-yl)benzamide]
4 | 40 | – | 7 | Cc1cc2cnc(NC(=O)c3ccc(-c4cn[nH]c4)cn3)cc2[nH]1 [Example 1, N-(2-methyl-1H-pyrrolo[3,2-c]pyridin-6-yl)-5-(1H-pyrazol-4-yl)picolinamide]
5 | 119 | 67 | – | CN1CCC[C@@H]1c1cc2cnc(NC(=O)c3ccc(-c4cn[nH]c4)cc3F)cc2[nH]1 [Example 4, (R)-2-fluoro-N-(2-(1-methylpyrrolidin-2-yl)-1H-pyrrolo[3,2-c]pyridin-6-yl)-4-(1H-pyrazol-4-yl)benzamide]
6 | 176 | 73 | – | CN1CCC[C@@H]1c1cc2cnc(NC(=O)c3ccc(-c4c[nH]nc4F)cc3)cc2[nH]1 [Example 9, (R)-4-(5-fluoro-1H-pyrazol-4-yl)-N-(2-(1-methylpyrrolidin-2-yl)-1H-pyrrolo[3,2-c]pyridin-6-yl)benzamide]
7 | 83 | – | 13 | CN1CCC[C@H]1c1cc2cnc(NC(=O)c3ccc(-c4cn[nH]c4)cn3)cc2[nH]1 [Example 3, (S)-N-(2-(1-methylpyrrolidin-2-yl)-1H-pyrrolo[3,2-c]pyridin-6-yl)-5-(1H-pyrazol-4-yl)picolinamide]
8 | 19 | – | 7 | CN1CCC[C@@H]1c1cc2cnc(NC(=O)c3ccc(-c4cn[nH]c4)cn3)cc2[nH]1 [Example 2, (R)-N-(2-(1-methylpyrrolidin-2-yl)-1H-pyrrolo[3,2-c]pyridin-6-yl)-5-(1H-pyrazol-4-yl)picolinamide]
9 | 79 | 46 | 274 | CN1CCC[C@@H]1c1cc2cnc(NC(=O)c3ccc(-c4cn[nH]c4)cc3)cc2[nH]1 [Example 5, (R)-N-(2-(1-methylpyrrolidin-2-yl)-1H-pyrrolo[3,2-c]pyridin-6-yl)-4-(1H-pyrazol-4-yl)benzamide]
